Test system: MDA MB 231 cells
Experiment: Antiproliferation assay in MDA MB 231 cells (Cell Titer Glo)
Assay type: cell-based
Conditions: Homo sapiens, MDA-MB-231, 216 h, MDAMB231 cell line, 9 day treatment, racemic compounds (Table 2)
Experimental: Antiproliferation Assay in MDA MB 231 Cells MDA MB 231 cells were seeded in 96 well plate at a seeding density of 250 cells/well. The cells were allowed to settle overnight under standard incubator conditions (37° C., 5% CO2). Next day treatment with increasing dose of test compounds and reference compounds were done to the respective wells and the cells were further incubated under standard cell culture conditions for another 4 days. On the 5th day, media was replenished with fresh treatment and cells were incubated for a total of 9 day treatment period. On the day of termination, appropriate volume of Cell Titer Glo reagent was added to the treatment (and control) wells and the plates were kept on a plate shaker @300 RPM for 15 min. Luminiscence reading (RLU) was […] RLU is directly proportional to ATP content and is directly related to number of metabolically active cells in the respective well. Calculation: a. Blank Correction: RLU of the Wells Containing No Cells is Considered as Blank and Subtracted from all RLU of the Treated and Control Wells [formula]

Compound | inhibition at 10 µM [%]
COc1ccc(C2CC(c3c(C)c4cc(Cl)ccc4[nH]c3=O)=NN2C)cc1 (stereo not drawn) [Example 5, 6-Chloro-3-(5-(4-methoxyphenyl)-1-methyl-4,5-dihydro-1H-pyrazol-3-yl)-4-methylquinolin-2(1H)-one] | < 50
CCC(=O)N1N=C(c2c(C)c3cc(Cl)ccc3[nH]c2=O)CC1c1ccc2ccn(C)c2c1 (stereo not drawn) [Example 6, 6-Chloro-4-methyl-3-(5-(1-methyl-1H-indol-6-yl)-1-propionyl-4,5-dihydro-1H-pyrazol-3-yl)quinolin-2(1H)-one] | ≥ 50
CCC(=O)N1N=C(c2c(C)c3cc(Cl)ccc3[nH]c2=O)CC1c1ccc(OC)nc1 (stereo not drawn) [Example 7, 6-chloro-3-(5-(6-methoxypyridin-3-yl)-1-propionyl-4,5-dihydro-1H-pyrazol-3-yl)-4-methylquinolin-2(1H)-one] | ≥ 50
CCC(=O)Nc1ccc(C2CC(c3c(C)c4cc(Cl)ccc4[nH]c3=O)=NN2C(=O)CC)cc1 (stereo not drawn) [Example 8, N-(4-(3-(6-chloro-4-methyl-2-oxo-1,2-dihydroquinolin-3-yl)-1-propionyl-4,5-dihydro-1H-pyrazol-5-yl)phenyl)propionamide] | ≥ 50
CCC(=O)N1N=C(c2c(C)c3ncccc3[nH]c2=O)CC1c1ccc(OC)cc1 (stereo not drawn) [Example 9, 3-(5-(4-Methoxyphenyl)-1-propionyl-4,5-dihydro-1H-pyrazol-3-yl)-4-methyl-1,5-naphthyridin-2(1H)-one] | < 50
CCC(=O)N1N=C(c2c(C)c3ccccc3[nH]c2=O)CC1c1ccc(OC)cc1 (stereo not drawn) [Example 11, 3-(5-(4-Methoxyphenyl)-1-propionyl-4,5-dihydro-1H-pyrazol-3-yl)-4-methylquinolin-2(1H)-one] | ≥ 50
CCC(=O)N1N=C(c2c(C)c3ccccc3[nH]c2=O)CC1c1cn(C)c2ccccc12 (stereo not drawn) [Example 12, 4-Methyl-3-(5-(1-methyl-1H-indol-3-yl)-1-propionyl-4,5-dihydro-1H-pyrazol-3-yl)quinolin-2(1H)-one] | ≥ 50
CCC(=O)N1N=C(c2c(C)c3cccnc3[nH]c2=O)CC1c1ccc(OC)cc1 (stereo not drawn) [Example 13, 3-(5-(4-Methoxyphenyl)-1-propionyl-4,5-dihydro-1H-pyrazol-3-yl)-4-methyl-1,8-naphthyridin-2(1H)-one] | ≥ 50
CCC(=O)N1N=C(c2c(C)c3cncnc3[nH]c2=O)CC1c1ccc(OC)cc1 (stereo not drawn) [Example 14, 6-(5-(4-Methoxyphenyl)-1-propionyl-4,5-dihydro-1H-pyrazol-3-yl)-5-methylpyrido-[2,3-d]pyrimidin-7(8H)-one] | < 50
CCC(=O)N1N=C(c2c(C)c3cc(Br)ccc3[nH]c2=O)CC1c1ccc(OC)cc1 (stereo not drawn) [Example 15, 6-bromo-3-(5-(4-methoxyphenyl)-1-propionyl-4,5-dihydro-1H-pyrazol-3-yl)-4-methylquinolin-2(1H)-one] | ≥ 50
CCC(=O)N1N=C(c2c(C)c3nc(Cl)ccc3[nH]c2=O)CC1c1ccc(OC)cc1 (stereo not drawn) [Example 16, 6-chloro-3-(5-(4-methoxyphenyl)-1-propionyl-4,5-dihydro-1H-pyrazol-3-yl)-4-methyl-1,5-naphthyridin-2(1H)-one] | ≥ 50
CCC(=O)N1N=C(c2cc3cc(Cl)ccc3[nH]c2=O)CC1c1ccc(OC)cc1 (stereo not drawn) [Example 17, 6-Chloro-3-(5-(4-methoxyphenyl)-1-propionyl-4,5-dihydro-1H-pyrazol-3-yl)quinolin-2(1H)-one] | ≥ 50
CCC(=O)N1N=C(c2c(C)c3cc(Cl)ccc3n(C)c2=O)CC1c1ccc(OC)cc1 (stereo not drawn) [Example 18, 6-chloro-3-(5-(4-methoxyphenyl)-1-propionyl-4,5-dihydro-1H-pyrazol-3-yl)-1,4-dimethylquinolin-2(1H)-one] | < 50
CCC(=O)N1N=C(c2c(=O)[nH]cc3ccccc23)CC1c1ccc(OC)cc1 (stereo not drawn) [Example 19, 4-(5-(4-methoxyphenyl)-1-propionyl-4,5-dihydro-1H-pyrazol-3-yl)isoquinolin-3(2H)-one] | < 50
CCC(=O)N1N=C(c2c(C)c3ccsc3[nH]c2=O)CC1c1ccc(OC)nc1 (stereo not drawn) [Example 21, 5-(5-(6-methoxypyridin-3-yl)-1-propionyl-4,5-dihydro-1H-pyrazol-3-yl)-4-methylthieno[2,3-b]pyridin-6(7H)-one] | ≥ 50
CCC(=O)N1N=C(c2cc3ccsc3[nH]c2=O)CC1c1ccc(OC)cc1 (stereo not drawn) [Example 22, 5-(5-(4-methoxyphenyl)-1-propionyl-4,5-dihydro-1H-pyrazol-3-yl)thieno[2,3-b]pyridin-6(7H)-one] | ≥ 50
CCC(=O)N1N=C(c2c(C3CC3)c3cc(Cl)ccc3[nH]c2=O)CC1c1ccc(OC)cc1 (stereo not drawn) [Example 23, 6-chloro-4-cyclopropyl-3-(5-(4-methoxyphenyl)-1-propionyl-4,5-dihydro-1H-pyrazol-3-yl)quinolin-2(1H)-one] | ≥ 50

Compound | inhibition at 10 µM [%]
CCC(=O)N1N=C(c2c(C)c3cc(Cl)ccc3[nH]c2=O)CC1c1cn(C)c2ccccc12 (stereo not drawn) [Example 24, 6-chloro-4-methyl-3-(5-(1-methyl-1H-indol-3-yl)-1-propionyl-4,5-dihydro-1H-pyrazol-3-yl)quinolin-2(1H)-one] | ≥ 50
CCC(=O)N1N=C(c2c(C)c3ccsc3[nH]c2=O)CC1c1ccc(OC)cn1 (stereo not drawn) [Example 25, 5-(5-(5-methoxypyridin-2-yl)-1-propionyl-4,5-dihydro-1H-pyrazol-3-yl)-4-methylthieno[2,3-b]pyridin-6(7H)-one] | < 50
CCC(=O)N1N=C(c2c(C)c3ccsc3[nH]c2=O)CC1c1ccc(=O)[nH]c1 (stereo not drawn) [Example 26, 4-methyl-5-(5-(6-oxo-1,6-dihydropyridin-3-yl)-1-propionyl-4,5-dihydro-1H-pyrazol-3-yl)thieno[2,3-b]pyridin-6(7H)-one] | < 50
CCC(=O)N1N=C(c2c(C)c3ccsc3[nH]c2=O)CC1c1ccc(OC)s1 (stereo not drawn) [Example 29, 5-(5-(5-methoxythiophen-2-yl)-1-propionyl-4,5-dihydro-1H-pyrazol-3-yl)-4-methylthieno[2,3-b]pyridin-6(7H)-one] | ≥ 50
CCC(=O)N1N=C(c2c(C)c3ccsc3[nH]c2=O)CC1c1cnc(OC)s1 (stereo not drawn) [Example 30, 5-(5-(2-methoxythiazol-5-yl)-1-propionyl-4,5-dihydro-1H-pyrazol-3-yl)-4-methylthieno[2,3-b]pyridin-6(7H)-one] | ≥ 50
CCC(=O)N1N=C(c2c(C)c3ccsc3[nH]c2=O)CC1c1csc(Br)c1 (stereo not drawn) [Example 31, 5-(5-(5-bromothiophen-3-yl)-1-propionyl-4,5-dihydro-1H-pyrazol-3-yl)-4-methylthieno[2,3-b]pyridin-6(7H)-one] | < 50
CCC(=O)N1N=C(c2c(C)c3ccsc3[nH]c2=O)CC1c1ccccc1 (stereo not drawn) [Example 32, 4-methyl-5-(5-phenyl-1-propionyl-4,5-dihydro-1H-pyrazol-3-yl)thieno[2,3-b]pyridin-6(7H)-one] | < 50
CCC(=O)N1N=C(c2c(C)c3ccsc3[nH]c2=O)CC1c1cc(Br)cs1 (stereo not drawn) [Example 34, 5-(5-(4-bromothiophen-2-yl)-1-propionyl-4,5-dihydro-1H-pyrazol-3-yl)-4-methylthieno[2,3-b]pyridin-6(7H)-one] | < 50
CCC(=O)N1N=C(c2c(C)c3ccsc3[nH]c2=O)CC1c1ccncc1 (stereo not drawn) [Example 35, 4-methyl-5-(1-propionyl-5-(pyridin-4-yl)-4,5-dihydro-1H-pyrazol-3-yl)thieno[2,3-b]pyridin-6(7H)-one] | < 50
CCC(=O)N1N=C(c2c(C)c3ccsc3[nH]c2=O)CC1c1cccnc1 (stereo not drawn) [Example 36, 4-methyl-5-(1-propionyl-5-(pyridin-3-yl)-4,5-dihydro-1H-pyrazol-3-yl)thieno[2,3-b]pyridin-6(7H)-one] | < 50
CCC(=O)N1N=C(c2c(C)c3ccsc3[nH]c2=O)CC1c1ccc(N2CCN(C)CC2)cc1 (stereo not drawn) [Example 38, 4-methyl-5-(5-(4-(4-methylpiperazin-1-yl)phenyl)-1-propionyl-4,5-dihydro-1H-pyrazol-3-yl)thieno[2,3-b]pyridin-6(7H)-one] | ≥ 50
CCC(=O)N1N=C(c2c(C)c3ccsc3[nH]c2=O)CC1c1ccc(N(C)C)cc1 (stereo not drawn) [Example 39, 5-(5-(4-(dimethylamino)phenyl)-1-propionyl-4,5-dihydro-1H-pyrazol-3-yl)-4-methylthieno[2,3-b]pyridin-6(7H)-one] | ≥ 50
CCC(=O)N1N=C(c2c(C)c3c(Cl)csc3[nH]c2=O)CC1c1ccc(OC)cc1 (stereo not drawn) [Example 40, 3-chloro-5-(5-(4-methoxyphenyl)-1-propionyl-4,5-dihydro-1H-pyrazol-3-yl)-4-methylthieno[2,3-b]pyridin-6(7H)-one] | < 50
CCC(=O)N1N=C(c2c(C)c3ccsc3[nH]c2=O)CC1c1ccc(C)s1 (stereo not drawn) [Example 41, 5-(5-(5-methylthiophen-2-yl)-1-propionyl-4,5-dihydro-1H-pyrazol-3-yl)-4-methylthieno[2,3-b]pyridin-6(7H)-one] | ≥ 50
CCC(=O)N1N=C(c2c(C)c3ccsc3[nH]c2=O)CC1c1ccc(C(F)(F)F)cc1 (stereo not drawn) [Example 42, 4-methyl-5-(1-propionyl-5-(4-(trifluoromethyl)phenyl)-4,5-dihydro-1H-pyrazol-3-yl)thieno[2,3-b]pyridin-6(7H)-one] | ≥ 50
CCC(=O)N1N=C(c2c(C)c3ccsc3[nH]c2=O)CC1c1ccc(C(F)F)cc1 (stereo not drawn) [Example 43, 5-(5-(4-(difluoromethyl)phenyl)-1-propionyl-4,5-dihydro-1H-pyrazol-3-yl)-4-methylthieno[2,3-b]pyridin-6(7H)-one] | ≥ 50

From US20250145601A1, “NOVEL BICYCLIC COMPOUNDS AS RAD51 INHIBITORS” (SATYA THERAPEUTICS, INC., priority 2022, published 2025)
